Laboratory results taken from ChEMBL document CHEMBL1201862, “PubChem BioAssay data set” (2004).
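Results reflect a 48-hour exposure of cells in 96-well plates to compound at five concentrations. Abbreviation: GI50, concentration required for 50% inhibition of growth.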 Activity calls are given as the source filed them. Cut-off read from the data, not from the text of the source: active = GI50 up to about 1.1 µM and inactive = higher. Square brackets hold non-standard residues; d marks the D form. Peptide text beside a SMILES is read from it. pGlu = O=C1CC[CH](C(=O)O)N1

What was measured:
Test in all cases: inhibition of tumour cell growth, NCI panel, 48 h
HL-60 = system: HL-60
HOP-92 = system: HOP-92
Hs-578T = system: Hs-578T
K562 = system: K562
LOX IMVI = system: LOX IMVI
MCF7 = system: MCF7
MDA-MB-231 = system: MDA-MB-231
NCI-H23 = system: NCI-H23
NCI-H522 = system: NCI-H522
NCI/ADR-RES = system: NCI/ADR-RES
OVCAR-3 = system: OVCAR-3
OVCAR-8 = system: OVCAR-8
RXF 393 = system: RXF 393
SF-295 = system: SF-295
SK-MEL-5 = system: SK-MEL-5
SNB-19 = system: SNB-19
SNB-75 = system: SNB-75
SR = system: SR
KM12 = system: KM12
SN12C = system: SN12C

Row | Structure (SMILES) | GI50 (HL-60) | GI50 (HOP-92) | GI50 (Hs-578T) | GI50 (K562) | GI50 (LOX IMVI) | GI50 (MCF7) | GI50 (MDA-MB-231) | GI50 (NCI-H23) | GI50 (NCI-H522) | GI50 (NCI/ADR-RES) | GI50 (OVCAR-3) | GI50 (OVCAR-8) | GI50 (RXF 393) | GI50 (SF-295) | GI50 (SK-MEL-5) | GI50 (SNB-19) | GI50 (SNB-75) | GI50 (SR) | GI50 (KM12) | GI50 (SN12C)
1 | O=C1c2ccccc2CC12Cc1cc3c(cc1C2=O)CCC3 (stereo not drawn) | > 100 µM (inactive) | > 100 µM (inactive) | > 100 µM (inactive) | > 100 µM (inactive) | > 100 µM (inactive) | > 100 µM (inactive) | > 100 µM (inactive) | > 100 µM (inactive) | > 100 µM (inactive) | > 100 µM (inactive) | > 100 µM (inactive) | > 100 µM (inactive) | > 100 µM (inactive) | > 100 µM (inactive) | > 100 µM (inactive) | > 100 µM (inactive) | > 100 µM (inactive) | > 100 µM (inactive) |  | 
2 | NC(C(=O)O)C(O)c1c[nH]cn1 (stereo not drawn) | > 100 µM (inactive) | > 100 µM (inactive) | > 100 µM (inactive) | > 100 µM (inactive) | > 100 µM (inactive) | > 100 µM (inactive) | > 100 µM (inactive) | > 100 µM (inactive) | > 100 µM (inactive) | > 100 µM (inactive) | > 100 µM (inactive) | > 100 µM (inactive) | > 100 µM (inactive) | > 100 µM (inactive) | > 100 µM (inactive) | > 100 µM (inactive) | > 100 µM (inactive) | > 100 µM (inactive) | > 100 µM (inactive) | > 100 µM (inactive)
3 | NC(=O)c1ccc(S(=O)(=NS(=O)(=O)c2ccccc2)c2ccc(C(N)=O)cc2)cc1 | > 100 µM (inactive) | > 100 µM (inactive) | > 100 µM (inactive) | > 100 µM (inactive) | > 100 µM (inactive) | > 100 µM (inactive) | > 100 µM (inactive) | > 100 µM (inactive) | > 100 µM (inactive) | > 100 µM (inactive) | > 100 µM (inactive) | > 100 µM (inactive) | > 100 µM (inactive) | > 100 µM (inactive) | > 100 µM (inactive) | > 100 µM (inactive) | > 100 µM (inactive) | > 100 µM (inactive) | > 100 µM (inactive) | > 100 µM (inactive)
4 | COC(=O)c1ccc(/C=C(\c2ccc([N+](=O)[O-])o2)S(=O)(=O)c2ccc(NC(C)=O)cc2)o1 | 3.03 µM (inactive) | 10.3 µM (inactive) | 2.1 µM (inactive) | 4.15 µM (inactive) |  | 5.36 µM (inactive) | 2.01 µM (inactive) | 13.9 µM (inactive) | 2.03 µM (inactive) | 14.2 µM (inactive) | 5.9 µM (inactive) | 3.42 µM (inactive) | 3.69 µM (inactive) | 17.5 µM (inactive) | 3.93 µM (inactive) | 16.9 µM (inactive) | 19.3 µM (inactive) | 1.77 µM (inactive) | 13.4 µM (inactive) | 0.0579 µM (active)
5 | O=c1cccccc1O [TROPOLONE] | 11.9 µM (inactive) | > 100 µM (inactive) | 91.8 µM (inactive) | 35.3 µM (inactive) | 34.7 µM (inactive) | 44 µM (inactive) | > 100 µM (inactive) | > 100 µM (inactive) | 33.3 µM (inactive) | 39.6 µM (inactive) | 34 µM (inactive) | 32.9 µM (inactive) | 26.5 µM (inactive) | 93.3 µM (inactive) | 83 µM (inactive) | > 100 µM (inactive) | > 100 µM (inactive) | 46.7 µM (inactive) | > 100 µM (inactive) | 
6 | C[C@H](CCC1=NCCN1)[C@H]1CC[C@H]2[C@@H]3CC[C@@H]4C[C@H](O)CC[C@]4(C)[C@H]3CC[C@]12C |  | 3.3 µM (inactive) | 14.8 µM (inactive) | 2.49 µM (inactive) | 1.95 µM (inactive) | 6.52 µM (inactive) | 5.78 µM (inactive) | 15 µM (inactive) | 5.41 µM (inactive) | 16.1 µM (inactive) | 0.394 µM (active) | 12 µM (inactive) | 12.2 µM (inactive) | 3.4 µM (inactive) | 1.63 µM (inactive) | 13.9 µM (inactive) | 5.07 µM (inactive) | 2.55 µM (inactive) | 7.59 µM (inactive) | 8.85 µM (inactive)
7 | CCN1C(c2ccccc2)=CC(c2ccccc2)(C(Cl)(Cl)Cl)C=C1c1ccccc1 | 1.1 µM (active) | 3.11 µM (inactive) | 25.7 µM (inactive) | 2.52 µM (inactive) | 8.45 µM (inactive) | 5.92 µM (inactive) | 3.4 µM (inactive) | 8.81 µM (inactive) | 5.69 µM (inactive) | 40.1 µM (inactive) | 7 µM (inactive) | 6.49 µM (inactive) | 17.5 µM (inactive) | 32.5 µM (inactive) | 1.7 µM (inactive) | 4.46 µM (inactive) | 5.06 µM (inactive) | > 10 µM (inactive) | 3.31 µM (inactive) | 45.3 µM (inactive)
8 | Nc1nc(Cl)cc(NCC2(CO)COC2)n1 | > 100 µM (inactive) | > 10 µM (inactive) | > 100 µM (inactive) | > 100 µM (inactive) | > 100 µM (inactive) | > 100 µM (inactive) | > 100 µM (inactive) | > 100 µM (inactive) | > 100 µM (inactive) | > 100 µM (inactive) | > 100 µM (inactive) | > 100 µM (inactive) | > 100 µM (inactive) | > 100 µM (inactive) | > 100 µM (inactive) |  | > 100 µM (inactive) | > 100 µM (inactive) | > 100 µM (inactive) | > 100 µM (inactive)
9 | O=C(CCC=C(S(=O)(=O)c1ccccc1)S(=O)(=O)c1ccccc1)c1ccccc1 | 1.86 µM (inactive) | 14.5 µM (inactive) | 5.22 µM (inactive) | 3.73 µM (inactive) | 3.26 µM (inactive) | 4.47 µM (inactive) | 8.04 µM (inactive) |  | 2.76 µM (inactive) | 4.06 µM (inactive) | 4.27 µM (inactive) | 4.58 µM (inactive) | 4.18 µM (inactive) | 22.5 µM (inactive) | 6.97 µM (inactive) | 13.6 µM (inactive) | 3.61 µM (inactive) | 3.01 µM (inactive) | 10.9 µM (inactive) | 3.26 µM (inactive)
10 | Cc1cc2nnc(C(N)=O)c(N)c2cc1C | > 100 µM (inactive) | 26.2 µM (inactive) | 30.5 µM (inactive) | > 100 µM (inactive) | > 100 µM (inactive) | > 100 µM (inactive) | > 100 µM (inactive) | > 100 µM (inactive) | 20 µM (inactive) | > 100 µM (inactive) | > 100 µM (inactive) | 47.8 µM (inactive) |  | > 100 µM (inactive) | > 100 µM (inactive) | > 100 µM (inactive) | 12.9 µM (inactive) | > 100 µM (inactive) | > 100 µM (inactive) | > 100 µM (inactive)
11 | Cc1[nH]n(C(=N)N)c(=O)c1CCO | > 100 µM (inactive) | > 100 µM (inactive) | > 100 µM (inactive) | > 100 µM (inactive) | > 100 µM (inactive) | > 100 µM (inactive) | > 100 µM (inactive) | > 100 µM (inactive) | > 100 µM (inactive) | 2.76 µM (inactive) | > 100 µM (inactive) | 1.68 µM (inactive) | > 100 µM (inactive) | > 100 µM (inactive) | > 100 µM (inactive) | > 100 µM (inactive) | > 100 µM (inactive) | 17.1 µM (inactive) |  | > 100 µM (inactive)
12 | O=C1C(Br)=C(Br)C(=O)c2c(O)ccc(O)c21 | 0.168 µM (active) | 2.11 µM (inactive) | 27.1 µM (inactive) | 0.596 µM (active) |  | 2.42 µM (inactive) | 2.64 µM (inactive) | 4.67 µM (inactive) | 0.287 µM (active) | 12.2 µM (inactive) | 5.85 µM (inactive) | 8.83 µM (inactive) | 2.65 µM (inactive) | 17.8 µM (inactive) | 9.14 µM (inactive) | 18.3 µM (inactive) | 18.8 µM (inactive) | 0.0352 µM (active) | 11.4 µM (inactive) | 7.66 µM (inactive)
13 | CC(NC(=O)C(Cc1c[nH]cn1)NC(=O)C1CCC(=O)N1)C(N)=O (stereo not drawn) ([pGlu]-His-Ala-NH2; configuration not given here) | > 100 µM (inactive) | > 100 µM (inactive) | > 100 µM (inactive) | > 100 µM (inactive) | > 100 µM (inactive) | > 100 µM (inactive) | > 100 µM (inactive) | > 100 µM (inactive) |  | > 10 µM (inactive) | > 100 µM (inactive) | > 100 µM (inactive) | > 100 µM (inactive) | > 100 µM (inactive) | > 100 µM (inactive) | > 100 µM (inactive) | > 100 µM (inactive) | > 100 µM (inactive) | > 100 µM (inactive) | > 100 µM (inactive)
14 | COC(=O)C(NC(=O)CNC(=O)CSc1nnc(COc2ccc(Cl)cc2)n1-c1ccccc1)C(C)C (stereo not drawn) |  | 20.8 µM (inactive) | 22.9 µM (inactive) | 33.3 µM (inactive) | 19.6 µM (inactive) | 16.1 µM (inactive) | 18.5 µM (inactive) | 20 µM (inactive) | 3.75 µM (inactive) | > 100 µM (inactive) | 17.3 µM (inactive) | 20.1 µM (inactive) | 18.1 µM (inactive) | 19.5 µM (inactive) | 16.2 µM (inactive) | 20.3 µM (inactive) | 21.3 µM (inactive) | 11.1 µM (inactive) | 18.5 µM (inactive) | 18.4 µM (inactive)
